Among the targets are CDK5 (Homo sapiens, UniProt Q00535); CDK7 (Homo sapiens, UniProt P50613); FES (Homo sapiens, UniProt P07332); IKBKB (Homo sapiens, UniProt O14920); MAP2K1 (Homo sapiens, UniProt Q02750); MAP3K6 (Homo sapiens, UniProt O95382); MAP4K1 (Homo sapiens, UniProt Q92918); MAP4K2 (Homo sapiens, UniProt Q12851); MARK2 (Homo sapiens, UniProt Q7KZI7); NEK1 (Homo sapiens, UniProt Q96PY6); NEK2 (Homo sapiens, UniProt P51955); NEK7 (Homo sapiens, UniProt Q8TDX7); OXSR1 (Homo sapiens, UniProt O95747); PRKAG1 (Homo sapiens, UniProt P54619); PRKD3 (Homo sapiens, UniProt O94806); PRKX (Homo sapiens, UniProt P51817); RPS6KA6 (Homo sapiens, UniProt Q9UK32); SERPINB2 (Homo sapiens, UniProt P05120); SIK2 (Homo sapiens, UniProt Q9H0K1); SLK (Homo sapiens, UniProt Q9H2G2); TNK1 (Homo sapiens, UniProt Q13470).

Common to all, as to assay: biochemical
Parameters in all cases: species or system HEK293/K-562/placenta mixed human extract; Kinobeads chemoproteomic competition binding, quantified by TMT LC-MS/MS, dose response up to 20 uM

Sequence of PRKX (P51817 whole entry): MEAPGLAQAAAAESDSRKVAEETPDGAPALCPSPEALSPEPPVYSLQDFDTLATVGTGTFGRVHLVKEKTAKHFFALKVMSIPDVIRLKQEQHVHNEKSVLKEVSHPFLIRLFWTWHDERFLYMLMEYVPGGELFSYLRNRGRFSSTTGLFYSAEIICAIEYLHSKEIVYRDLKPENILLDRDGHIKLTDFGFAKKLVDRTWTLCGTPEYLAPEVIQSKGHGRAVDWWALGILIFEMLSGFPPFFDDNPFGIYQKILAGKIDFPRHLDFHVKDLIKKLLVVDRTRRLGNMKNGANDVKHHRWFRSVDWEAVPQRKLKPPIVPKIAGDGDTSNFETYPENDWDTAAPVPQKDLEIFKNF
Sequence of MAP4K1 (Q92918 whole entry): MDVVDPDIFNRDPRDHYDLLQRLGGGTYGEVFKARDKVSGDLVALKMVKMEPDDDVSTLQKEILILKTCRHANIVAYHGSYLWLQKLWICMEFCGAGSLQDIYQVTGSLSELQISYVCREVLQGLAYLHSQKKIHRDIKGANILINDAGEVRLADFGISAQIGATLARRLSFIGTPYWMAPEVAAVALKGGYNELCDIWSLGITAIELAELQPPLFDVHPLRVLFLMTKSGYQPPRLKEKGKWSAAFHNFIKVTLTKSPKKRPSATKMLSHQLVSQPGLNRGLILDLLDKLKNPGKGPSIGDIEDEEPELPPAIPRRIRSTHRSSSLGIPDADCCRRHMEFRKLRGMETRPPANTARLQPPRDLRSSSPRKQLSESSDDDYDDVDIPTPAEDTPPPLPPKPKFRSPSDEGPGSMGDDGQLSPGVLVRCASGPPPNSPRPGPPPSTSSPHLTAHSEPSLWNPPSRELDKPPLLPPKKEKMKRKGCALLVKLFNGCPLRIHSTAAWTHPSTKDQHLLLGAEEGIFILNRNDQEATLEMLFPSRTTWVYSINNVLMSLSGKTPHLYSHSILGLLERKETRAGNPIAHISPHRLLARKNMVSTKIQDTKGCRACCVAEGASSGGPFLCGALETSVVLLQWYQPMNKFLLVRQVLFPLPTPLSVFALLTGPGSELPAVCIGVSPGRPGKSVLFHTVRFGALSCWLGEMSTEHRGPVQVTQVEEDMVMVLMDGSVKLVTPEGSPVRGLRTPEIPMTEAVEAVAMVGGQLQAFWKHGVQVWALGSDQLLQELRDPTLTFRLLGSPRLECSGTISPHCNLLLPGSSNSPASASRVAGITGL
Sequence of TNK1 (Q13470 whole entry): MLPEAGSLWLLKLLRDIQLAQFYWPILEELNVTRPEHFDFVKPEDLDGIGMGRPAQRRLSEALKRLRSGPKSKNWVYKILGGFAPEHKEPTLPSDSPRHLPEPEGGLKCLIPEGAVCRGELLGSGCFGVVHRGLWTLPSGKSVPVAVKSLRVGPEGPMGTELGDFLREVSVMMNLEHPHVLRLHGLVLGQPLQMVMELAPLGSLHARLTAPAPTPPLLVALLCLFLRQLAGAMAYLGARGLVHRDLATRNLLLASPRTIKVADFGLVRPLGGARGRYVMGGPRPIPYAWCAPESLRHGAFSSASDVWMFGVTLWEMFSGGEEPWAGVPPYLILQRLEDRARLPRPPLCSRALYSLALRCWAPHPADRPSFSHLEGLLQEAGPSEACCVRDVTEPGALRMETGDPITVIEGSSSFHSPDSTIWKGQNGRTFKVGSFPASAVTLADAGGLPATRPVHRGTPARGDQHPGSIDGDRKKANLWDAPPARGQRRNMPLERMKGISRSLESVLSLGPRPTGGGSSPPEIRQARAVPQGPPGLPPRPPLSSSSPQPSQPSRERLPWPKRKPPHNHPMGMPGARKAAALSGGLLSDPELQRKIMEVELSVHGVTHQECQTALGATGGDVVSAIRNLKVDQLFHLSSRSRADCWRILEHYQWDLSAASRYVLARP
Sequence of OXSR1 (O95747 whole entry): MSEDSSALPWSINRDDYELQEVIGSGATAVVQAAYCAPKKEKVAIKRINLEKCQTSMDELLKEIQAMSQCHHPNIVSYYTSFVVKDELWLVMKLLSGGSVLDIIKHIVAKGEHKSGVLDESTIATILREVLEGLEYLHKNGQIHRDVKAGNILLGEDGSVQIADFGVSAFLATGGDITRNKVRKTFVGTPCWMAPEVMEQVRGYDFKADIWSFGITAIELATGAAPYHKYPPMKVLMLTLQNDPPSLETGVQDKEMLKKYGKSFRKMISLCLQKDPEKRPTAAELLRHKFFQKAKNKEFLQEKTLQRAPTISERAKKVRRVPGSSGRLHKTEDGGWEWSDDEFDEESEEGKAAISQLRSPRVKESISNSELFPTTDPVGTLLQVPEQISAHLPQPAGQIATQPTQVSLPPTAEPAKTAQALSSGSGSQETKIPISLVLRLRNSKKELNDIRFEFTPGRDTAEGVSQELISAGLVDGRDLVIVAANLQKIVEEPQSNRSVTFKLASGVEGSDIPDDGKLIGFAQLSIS
Sequence of PRKAG1 (P54619 whole entry): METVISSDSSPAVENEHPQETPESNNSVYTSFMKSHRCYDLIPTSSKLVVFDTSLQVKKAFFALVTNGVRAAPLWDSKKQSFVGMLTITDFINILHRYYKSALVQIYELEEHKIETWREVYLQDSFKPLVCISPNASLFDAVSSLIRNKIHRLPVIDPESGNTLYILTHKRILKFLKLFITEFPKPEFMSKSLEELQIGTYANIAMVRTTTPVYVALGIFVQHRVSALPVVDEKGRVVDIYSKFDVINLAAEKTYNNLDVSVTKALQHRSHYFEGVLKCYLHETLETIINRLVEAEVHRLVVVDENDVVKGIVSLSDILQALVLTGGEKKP
Sequence of MARK2 (Q7KZI7 whole entry): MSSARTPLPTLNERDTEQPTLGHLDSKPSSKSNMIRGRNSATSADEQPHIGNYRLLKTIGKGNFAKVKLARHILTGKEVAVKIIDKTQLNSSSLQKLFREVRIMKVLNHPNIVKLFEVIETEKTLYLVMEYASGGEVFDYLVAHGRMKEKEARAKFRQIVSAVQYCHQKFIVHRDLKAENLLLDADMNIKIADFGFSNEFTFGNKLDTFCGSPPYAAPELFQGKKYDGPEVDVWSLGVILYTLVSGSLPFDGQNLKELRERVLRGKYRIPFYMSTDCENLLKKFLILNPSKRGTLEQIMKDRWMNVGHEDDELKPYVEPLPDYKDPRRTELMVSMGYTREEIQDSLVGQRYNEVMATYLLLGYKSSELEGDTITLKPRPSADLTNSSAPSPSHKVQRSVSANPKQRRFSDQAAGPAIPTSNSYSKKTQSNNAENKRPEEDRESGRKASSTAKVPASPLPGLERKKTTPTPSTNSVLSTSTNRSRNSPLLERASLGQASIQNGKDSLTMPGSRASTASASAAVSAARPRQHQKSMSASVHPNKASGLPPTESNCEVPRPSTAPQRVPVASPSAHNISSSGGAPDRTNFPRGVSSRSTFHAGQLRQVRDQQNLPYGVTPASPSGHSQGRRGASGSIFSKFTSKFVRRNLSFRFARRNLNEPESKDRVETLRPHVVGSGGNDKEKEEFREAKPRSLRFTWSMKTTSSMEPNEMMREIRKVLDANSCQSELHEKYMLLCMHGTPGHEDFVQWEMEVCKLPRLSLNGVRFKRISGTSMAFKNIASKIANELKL
Sequence of MAP4K2 (Q12851 whole entry): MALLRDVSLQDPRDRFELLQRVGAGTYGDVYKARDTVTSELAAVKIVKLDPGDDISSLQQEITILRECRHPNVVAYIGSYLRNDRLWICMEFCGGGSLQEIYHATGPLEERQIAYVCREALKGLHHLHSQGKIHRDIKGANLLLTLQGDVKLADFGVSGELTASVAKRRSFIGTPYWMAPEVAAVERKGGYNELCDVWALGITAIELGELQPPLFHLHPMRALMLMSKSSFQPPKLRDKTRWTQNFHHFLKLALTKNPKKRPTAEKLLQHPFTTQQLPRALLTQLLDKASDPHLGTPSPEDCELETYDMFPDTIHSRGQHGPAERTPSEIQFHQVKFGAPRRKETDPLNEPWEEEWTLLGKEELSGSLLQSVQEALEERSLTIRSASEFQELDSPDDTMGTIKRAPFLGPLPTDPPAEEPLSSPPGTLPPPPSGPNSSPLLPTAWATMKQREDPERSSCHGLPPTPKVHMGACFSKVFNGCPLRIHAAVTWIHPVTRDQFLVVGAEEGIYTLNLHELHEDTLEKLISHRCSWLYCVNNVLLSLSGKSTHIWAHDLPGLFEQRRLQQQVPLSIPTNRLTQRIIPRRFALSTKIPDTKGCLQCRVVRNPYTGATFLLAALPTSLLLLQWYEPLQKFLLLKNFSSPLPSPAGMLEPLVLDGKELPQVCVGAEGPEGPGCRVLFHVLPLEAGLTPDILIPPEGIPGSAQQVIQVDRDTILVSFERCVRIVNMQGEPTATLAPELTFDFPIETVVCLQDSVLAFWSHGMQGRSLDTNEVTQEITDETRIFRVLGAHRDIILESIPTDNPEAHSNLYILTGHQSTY
Sequence of MAP2K1 (Q02750 whole entry): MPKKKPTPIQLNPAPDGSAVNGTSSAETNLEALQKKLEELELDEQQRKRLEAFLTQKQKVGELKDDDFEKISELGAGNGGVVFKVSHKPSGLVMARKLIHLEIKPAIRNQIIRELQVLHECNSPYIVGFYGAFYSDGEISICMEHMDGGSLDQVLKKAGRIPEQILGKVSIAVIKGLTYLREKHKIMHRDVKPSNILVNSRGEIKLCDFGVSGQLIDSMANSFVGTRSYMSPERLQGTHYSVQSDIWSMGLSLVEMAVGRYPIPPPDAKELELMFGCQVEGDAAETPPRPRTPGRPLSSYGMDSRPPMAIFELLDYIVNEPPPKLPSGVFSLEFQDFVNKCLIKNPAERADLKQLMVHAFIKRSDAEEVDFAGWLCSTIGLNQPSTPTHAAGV
Sequence of CDK5 (Q00535 whole entry): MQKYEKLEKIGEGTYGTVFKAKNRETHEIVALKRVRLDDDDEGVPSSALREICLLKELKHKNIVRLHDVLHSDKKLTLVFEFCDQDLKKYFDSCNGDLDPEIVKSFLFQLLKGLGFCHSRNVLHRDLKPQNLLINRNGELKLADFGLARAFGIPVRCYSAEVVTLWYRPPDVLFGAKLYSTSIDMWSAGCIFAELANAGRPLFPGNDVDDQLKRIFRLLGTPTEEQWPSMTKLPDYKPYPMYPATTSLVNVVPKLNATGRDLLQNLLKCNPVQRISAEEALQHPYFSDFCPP

In the case of `COc1nc(N[C@H]2CC[C@H](NS(=O)(=O)CC(C)C)CC2)nc2[nH]nc(N3CCOC[C@H]3C)c12` [compound 39, N-(trans-4-((4-Methoxy-3-((R)-3-methylmorpholino)-1H-pyrazolo[3,4-d]pyrimidin-6-yl)amino)cyclohexyl)-2-methylpropane-1-sulfonamide], the IC50 (usually the concentration at which inhibition is half-maximal) at CDK5 is 12 µM; on CDK7, 2.5 µM; at FES, no less than 20 µM; at IKBKB, no less than 20 µM; on MAP2K1 it was no less than 20 µM; on MAP3K6 it was no less than 20 µM. Besides, the half-inhibitory concentration (IC50) on MAP4K1, on MAP4K2, at MARK2, on NEK1, on NEK2 and at NEK7 was no less than 20 µM in each case. Besides, the IC50 on OXSR1, on PRKAG1, on PRKD3, on PRKX, at RPS6KA6 and at SERPINB2 was no less than 20 µM each time. The IC50 at SIK2, at SLK and at TNK1 was no less than 20 µM in each case.

For the origin of these results see paper PMC6407917, “Identification of GSK3186899/DDD853651 as a Preclinical Development Candidate for the Treatment of Visceral Leishmaniasis” (Journal of Medicinal Chemistry, 2018).
